This test relates to SREBP pathway. Nature of the test: SREBP luciferase reporter gene system (SRE-luciferase assay). It counts as cell-based, human. As to conditions: Huh-7/SRE-luc cells, sterol-deficient medium, 0.01-10 µM. The gist of the method:
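Huh-7 cells stably carrying LDLR promoter-luciferase plus GFP were treated 16 h in sterol-deficient medium (5% lipoprotein-deficient serum, 2 µM lovastatin, 10 µM mevalonic acid) at 0.01–10 µM. Luciferase/GFP ratio measured as pathway activity; inhibition versus DMSO fitted to a four-parameter model for IC50.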
Background: Reporter assays use an easily measured gene product as a stand-in for the process of interest.

As to `C[C@H](CCCC(O)c1cccc2nn[nH]c12)[C@H]1CC[C@H]2[C@H]3[C@H](CC[C@]12C)[C@@]1(C)CC[C@H](O)[C@H](O)[C@@H]1CC3(F)F` (single isomer, unassigned) [Compound 295, (1R,3aS,3bS,5aR,6R,7S,9aR,9bS,11aR)-4,4-difluoro-1-[(2R,6R)-6-hydroxy-6-(3H-benzo[d][1,2,3]triazol-4-yl)hexan-2-yl]-9a,11a-dimethylhexadecahydro-1H-cyclopenta[1,2-a]phenanthrene-6,7-diol or (1R,3aS,3bS,5aR,6R,7S,9aR,9bS,11aR)-4,4-difluoro-1-[(2R,6S)-6-hydroxy-6-(3H-benzo[d][1,2,3]triazol-4-yl)hexan-2-yl]-9a,11a-dimethylhexadecahydro-1H-cyclopenta[1,2-a]phenanthrene-6,7-diol], the IC50 – broadly, the point on the concentration scale where inhibition reaches its midpoint – (16 hours) worked out at 0.275 µM.
As to `C[C@H](CCC[C@@H](O)c1nn(C)c2ccccc12)[C@H]1CC[C@H]2[C@H]3[C@H](CC[C@]12C)[C@@]1(C)CC[C@H](O)[C@H](O)[C@@H]1CC3(F)F` [Compound 324, (1R,3aS,3bS,5aR,6R,7S,9aR,9bS,11aR)-4,4-difluoro-1-[(2R,6R)-6-hydroxy-6-(1-methylindazol-3-yl)hexan-2-yl]-9a,11a-dimethylhexadecahydro-1H-cyclopenta[1,2-a]phenanthrene-6,7-diol], the IC50 (Homo sapiens, Huh-7, 16 h) was 1.51 µM.
The same measure, in the same setting: as for `C[C@H](CCC[C@@H](O)c1nnnn1C)[C@H]1CC[C@H]2[C@H]3[C@H](CC[C@]12C)[C@@]1(C)CC[C@H](O)C[C@@H]1CC3(F)F` (single isomer, unassigned) [Compound 381], the figure is 0.285 µM; as for `COc1cc(F)ccc1[C@@H](O)CCC[C@@H](C)[C@H]1CC[C@H]2C3=C(F)C[C@H]4[C@@H](O)[C@@H](O)CC[C@]4(C)[C@H]3CC[C@]12C` [Compound 133, (1R,3aR,5aR,6R,7S,9aR,9bR,11aR)-4-fluoro-1-[(2R,6S)-6-(4-fluoro-2-methoxyphenyl)-6-hydroxyhexan-2-yl]-9a,11a-dimethyl-2,3,3a,5,5a,6,7,8,9,9a,9b,10,11,11a-tetradecahydro-1H-cyclopenta[1,2-a]phenanthrene-6,7-diol], 0.095 µM; as for `C[C@H](CCCC(O)c1ccc(F)nc1OCC1COC1)[C@H]1CC[C@H]2[C@H]3[C@H](CC[C@]12C)[C@@]1(C)CC[C@H](O)[C@H](O)[C@@H]1CC3(F)F` (stereo partly drawn) [Compound 383, (1R,3aS,3bS,5aR,6R,7S,9aR,9bS,11aR)-4,4-difluoro-1-[(2R)-6-{6-fluoro-2-[(oxetan-3-ylmethyl)oxy]pyridin-3-yl}-6-hydroxyhexan-2-yl]-9a,11a-dimethylhexadecahydro-1H-cyclopenta[1,2-a]phenanthrene-6,7-diol], 0.041 µM.
Still for that read-out and setting: with `COc1ccc(F)cc1[C@@H](O)CCC[C@@H](C)[C@H]1CC[C@H]2[C@H]3[C@H](CC[C@]12C)[C@@]1(C)CC[C@H](O)[C@H](O)[C@@H]1CC3(F)F` [Compound 168, (1R,3aS,3bS,5aR,6R,7S,9aR,9bS,11aR)-4,4-difluoro-1-[(2R,6S)-6-(5-fluoro-2-methoxyphenyl)-6-hydroxyhexan-2-yl]-9a,11a-dimethylhexadecahydro-1H-cyclopenta[1,2-a]phenanthrene-6,7-diol] the figure was 0.092 µM; with `C[C@H](CCCC(O)c1cccc2cnn(C)c12)[C@H]1CC[C@H]2[C@H]3[C@H](CC[C@]12C)[C@@]1(C)CC[C@H](O)[C@H](O)[C@@H]1CC3(F)F` (stereo partly drawn) [Compound 207, (1R,3aS,3bS,5aR,6R,7 S,9aR,9bS,11aR)-4,4-Difluoro-1-[(2R)-6-hydroxy-6-(1-methylindazol-7-yl)hexan-2-yl]-9a,11a-dimethylhexadecahydro-1H-cyclopenta[1,2-a]phenanthrene-6,7-diol], 0.206 µM; with `C[C@H](CCCC(O)c1cccc(OC(F)(F)F)c1)[C@H]1CC[C@H]2[C@H]3[C@H](CC[C@]12C)[C@@]1(C)CC[C@H](O)[C@H](O)[C@@H]1CC3(F)F` (single isomer, unassigned) [Compound 190, (1R,3aS,3bS,5aR,6R,7S,9aR,9bS,11aR)-4,4-difluoro-1-[(2R,6S)-6-hydroxy-6-{^3-[(trifluoromethyl)oxy]phenyl}hexan-2-yl]-9a,11a-dimethylhexadecahydro-1H-cyclopenta[1,2-a]phenanthrene-6,7-diol or (1R,3aS,3bS,5aR,6R,7S,9aR,9bS,11aR)-4,4-difluoro-1-[(2R,6R)-6-hydroxy-6-{3-[(trifluoromethyl)oxy]phenyl}hexan-2-yl]-9a,11a-dimethylhexadecahydro-1H-cyclopenta[1,2-a]phenanthrene-6,7-diol], 0.355 µM.
For the compound `COc1cccc(C(O)CCC[C@@H](C)[C@H]2CC[C@H]3C4=C(F)C[C@H]5[C@@H](O)[C@@H](O)CC[C@]5(C)[C@H]4CC[C@]23C)c1` (stereo partly drawn) [Compound 40, (1R,3aR,5aR,6R,7S,9aR,9bR,11aR)-4-fluoro-1-[(2R)-6-hydroxy-6-(3-methoxyphenyl)hexan-2-yl]-9a,11a-dimethyl-2,3,3a,5,5a,6,7,8,9,9a,9b,10,11,11a-tetradecahydro-1H-cyclopenta[1,2-a]phenanthrene-6,7-diol], under “Homo sapiens, Huh-7, 16 h”, the half-maximal inhibitory concentration (IC50) stood at 0.25 µM.
Take `COc1nc(F)ccc1[C@@H](O)CCC[C@@H](C)[C@H]1CC[C@H]2[C@H]3[C@H](CC[C@]12C)[C@@]1(C)CC[C@H](O)C[C@@H]1CC3(F)F` [Compound 312, (1R,3aS,3bR,5aR,7S,9aS,9bS,11aR)-4,4-difluoro-1-[(2R,6S)-6-(6-fluoro-2-methoxypyridin-3-yl)-6-hydroxyhexan-2-yl]-9a,11a-dimethylhexadecahydro-1H-cyclopenta[1,2-a]phenanthren-7-ol]: the IC50 (Homo sapiens, Huh-7, 16 h) came to 0.276 µM.
The same measure, in the same setting: with `C[C@H](CCCC(O)c1cccc2nn[nH]c12)[C@H]1CC[C@H]2[C@H]3[C@H](CC[C@]12C)[C@@]1(C)CC[C@H](O)[C@H](O)[C@@H]1CC3(F)F` (single isomer, unassigned) [Compound 294, (1R,3aS,3bS,5aR,6R,7S,9aR,9bS,11aR)-4,4-difluoro-1-[(2R,6S)-6-hydroxy-6-(3H-benzo[d][1,2,3]triazol-4-yl)hexan-2-yl]-9a,11a-dimethylhexadecahydro-1H-cyclopenta[1,2-a]phenanthrene-6,7-diol or (1R,3aS,3bS,5aR,6R,7S,9aR,9bS,11aR)-4,4-difluoro-1-[(2R,6R)-6-hydroxy-6-(3H-benzo[d][1,2,3]triazol-4-yl)hexan-2-yl]-9a,11a-dimethylhexadecahydro-1H-cyclopenta[1,2-a]phenanthrene-6,7-diol] the figure was 0.424 µM; with `COc1ccnc(F)c1[C@@H](O)CCC[C@@H](C)[C@H]1CC[C@H]2[C@H]3[C@H](CC[C@]12C)[C@@]1(C)CC[C@H](O)[C@H](O)[C@@H]1CC3(F)F` (single isomer, unassigned) [Compound 229], 0.049 µM; with `C[C@H](CCCC(O)c1cccc(F)c1)[C@H]1CC[C@H]2C3=C(F)C[C@H]4[C@@H](O)[C@@H](O)CC[C@]4(C)[C@H]3CC[C@]12C` (stereo partly drawn) [Compound 45, (1R,3aR,5aR,6R,7S,9aR,9bR,11aR)-4-fluoro-1-[(2R)-6-(3-fluorophenyl)-6-hydroxyhexan-2-yl]-9a,11a-dimethyl-2,3,3a,5,5a,6,7,8,9,9a,9b,10,11,11a-tetradecahydro-1H-cyclopenta[1,2-a]phenanthrene-6,7-diol], 0.198 µM.

For the origin of these results see patent EP4752152A1, “STEROID COMPOUND, AND PREPARATION METHOD THEREFOR AND USE THEREOF” (Cholesgen (Shanghai) Co.Ltd., priority 2023, dated 2025).
